Key:
Japanese medaka = settings: ref Flynn et al. (2018); cited from earlier work
[1] = tested on: Japanese medaka (Oryzias latipes); assay: Fish Short‐Term Reproduction Assay; type: in vivo; settings: for GSI Female / GSI Male / HSI Female / HSI Male / Length Female / Length Male / Weight Female / Weight Male: completion of exposure
medaka Esr1 (mEsr1) [2] = target: T1, medaka Esr1 (mEsr1) (Oryzias latipes, UniProt P50241); assay: cell-based; set-up: species or system Japanese medaka (Oryzias latipes)
T1 sequence (P50241 1-620): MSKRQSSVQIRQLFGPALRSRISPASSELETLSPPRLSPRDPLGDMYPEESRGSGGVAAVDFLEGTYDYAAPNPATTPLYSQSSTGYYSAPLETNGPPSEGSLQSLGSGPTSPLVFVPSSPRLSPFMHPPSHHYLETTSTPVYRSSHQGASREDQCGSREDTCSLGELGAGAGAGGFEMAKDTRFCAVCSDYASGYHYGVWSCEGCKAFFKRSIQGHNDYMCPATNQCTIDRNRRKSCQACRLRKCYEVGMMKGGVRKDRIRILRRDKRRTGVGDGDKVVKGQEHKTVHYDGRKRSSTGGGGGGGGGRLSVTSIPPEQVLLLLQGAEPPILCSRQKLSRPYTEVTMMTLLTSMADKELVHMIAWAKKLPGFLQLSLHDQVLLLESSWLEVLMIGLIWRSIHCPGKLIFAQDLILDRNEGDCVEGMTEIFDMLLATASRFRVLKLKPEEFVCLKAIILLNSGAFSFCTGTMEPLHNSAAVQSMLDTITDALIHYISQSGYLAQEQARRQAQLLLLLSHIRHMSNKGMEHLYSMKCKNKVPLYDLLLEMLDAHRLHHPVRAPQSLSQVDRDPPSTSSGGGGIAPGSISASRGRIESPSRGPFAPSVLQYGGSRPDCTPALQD

medaka ARβ (mArβ) [3] = target: T2, medaka ARβ (mArβ) (Oryzias latipes, UniProt D1MV73); assay: Medaka ARβ reporter gene assay, agonist assay; type: cell-based, Japanese medaka (Oryzias latipes); settings: MAC = 1.0 × 10^−5 M
T2 sequence (D1MV73 1-744): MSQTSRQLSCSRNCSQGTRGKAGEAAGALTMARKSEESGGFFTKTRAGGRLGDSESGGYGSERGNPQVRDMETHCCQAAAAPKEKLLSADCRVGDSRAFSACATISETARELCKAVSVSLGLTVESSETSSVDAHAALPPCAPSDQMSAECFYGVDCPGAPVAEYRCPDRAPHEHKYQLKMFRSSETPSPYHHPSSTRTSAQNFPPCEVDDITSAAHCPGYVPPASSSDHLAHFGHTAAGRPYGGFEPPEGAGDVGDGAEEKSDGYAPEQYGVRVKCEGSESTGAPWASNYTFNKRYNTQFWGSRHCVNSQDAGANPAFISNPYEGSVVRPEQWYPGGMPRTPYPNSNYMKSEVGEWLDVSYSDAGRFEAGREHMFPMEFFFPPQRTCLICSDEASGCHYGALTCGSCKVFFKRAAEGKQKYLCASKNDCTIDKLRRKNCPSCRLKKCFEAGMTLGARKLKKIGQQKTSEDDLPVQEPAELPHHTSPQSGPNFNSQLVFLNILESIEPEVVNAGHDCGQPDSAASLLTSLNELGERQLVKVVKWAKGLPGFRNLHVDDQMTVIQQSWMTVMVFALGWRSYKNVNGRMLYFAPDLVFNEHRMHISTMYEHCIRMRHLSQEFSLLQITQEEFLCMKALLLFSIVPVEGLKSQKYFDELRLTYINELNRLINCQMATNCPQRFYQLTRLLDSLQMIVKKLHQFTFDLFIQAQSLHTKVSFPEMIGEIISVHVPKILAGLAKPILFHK

medaka ARβ (mArβ) [4] = target: T2, medaka ARβ (mArβ); assay: Medaka ARβ reporter gene assay, antagonist assay; type: cell-based, Japanese medaka (Oryzias latipes); settings: 11‐KT spiked at 10 nM (C); MAC = 1.0 × 10^−5 M
medaka Esr1 (mEsr1) [5] = target: T1, medaka Esr1 (mEsr1); assay: Medaka Esr1 reporter gene assay, antagonist assay; type: cell-based, Japanese medaka (Oryzias latipes); settings: E2 spiked at 0.2 nM (A); MAC = 1.0 × 10^−5 M
[6] = 598 μg/L measured, 21 d, sig. ↑ vs control
[7] = 952 μg/L measured, 21 d, sig. ↑ vs control
[8] = measured concentration 196 μg/L
[9] = measured concentration 598 μg/L
[10] = measured concentration 952 μg/L

CCOP(=S)(OCC)Oc1cc(C)nc(C(C)C)n1 [DZ, Diazinon]
LOEC on fecundity (Japanese medaka): 2.9 µg/L | LOEC on growth (Japanese medaka): 5.2 µg/L | Individuals with symptoms of presumed paralysis of motor function ([1]; 38 μg/L): 12.5% | Fertility rate ([1]; 38 μg/L measured, 21 d): 96 ± 0.8% | Hepatic VTG, female ([1]; 38 μg/L measured, 21 d): 2,665 ± 1942 ng/mg‐liver | Hepatic VTG, male ([1]; 38 μg/L measured, 21 d): 0.13 ± 0.16 ng/mg‐liver | Mortality ([1]; 38 μg/L measured, 21 d): 4.2% | Mortality, number of dead fish ([1]; 38 μg/L measured, 21 d): 1 | Number of fertilized eggs (per female per day) ([1]; 38 μg/L measured, 21 d): 18 ± 0.7 | Number of total eggs (per female per day) ([1]; 38 μg/L measured, 21 d): 19 ± 0.6 | SSC female (joint plates with papillary processes) ([1]; 38 μg/L measured, 21 d): 0 ± 0 | SSC male (joint plates with papillary processes) ([1]; 38 μg/L measured, 21 d): 82 ± 16 | Fish with symptoms of presumed paralysis of motor function (in words) ([1]; 196 μg/L level and above): all fish | Hepatic VTG, female ([1]; 196 μg/L measured, 21 d): 1722 ± 1,394 ng/mg‐liver | Hepatic VTG, male ([1]; 196 μg/L measured, 21 d): 0.08 ± 0.14 ng/mg‐liver | Mortality ([1]; 196 μg/L measured, 21 d): 4.2% | Mortality, number of dead fish ([1]; 196 μg/L measured, 21 d): 1 | SSC female (joint plates with papillary processes) ([1]; 196 μg/L measured, 21 d): 0 ± 0 | SSC male (joint plates with papillary processes) ([1]; 196 μg/L measured, 21 d): 84 ± 19 | Fertility rate ([1]; 196 μg/L measured, 21 d, sig. ↓ vs control): 12 ± 6.3% | Hepatic VTG, female ([1]; 598 μg/L measured, 21 d): 661 ± 552 ng/mg‐liver | Hepatic VTG, male ([1]; 598 μg/L measured, 21 d): 0.06 ± 0.04 ng/mg‐liver | SSC female (joint plates with papillary processes) ([1]; 598 μg/L measured, 21 d): 0 ± 0 | SSC male (joint plates with papillary processes) ([1]; 598 μg/L measured, 21 d): 89 ± 17 | Mortality [1, 6]: 42% | Mortality, number of dead fish [1, 6]: 10 | Fertility rate ([1]; 598 μg/L measured, 21 d, sig. ↓ vs control): 55 ± 6.7% | Hepatic VTG, female ([1]; 952 μg/L measured, 21 d): 1,621 ± 1,314 ng/mg‐liver | Hepatic VTG, male ([1]; 952 μg/L measured, 21 d): 0.89 ± 1.67 ng/mg‐liver | SSC female (joint plates with papillary processes) ([1]; 952 μg/L measured, 21 d): 0 ± 0 | SSC male (joint plates with papillary processes) ([1]; 952 μg/L measured, 21 d): 89 ± 15 | Mortality [1, 7]: 58% | Mortality, number of dead fish [1, 7]: 14 | Fecundity, number of total eggs (in words) ([1]; 21 d): statistically significant decrease | LOECmVTG ([1]; LOEC on VTG induction in males): ND (>952) μg/L | LOECREPRO ([1]; LOEC on reproduction (fecundity and/or fertility)): 196 µg/L | LOECTOX ([1]; lowest observed effect concentration on mortality): 196 µg/L | GSI Female ([1]; measured concentration 38 μg/L): 12.3 ± 1.3% | GSI Male ([1]; measured concentration 38 μg/L): 0.9 ± 0.4% | HSI Female ([1]; measured concentration 38 μg/L): 5.3 ± 1.20% | HSI Male ([1]; measured concentration 38 μg/L): 2.8 ± 1.70% | Length Female ([1]; measured concentration 38 μg/L): 30.7 ± 1.0 mm | Length Male ([1]; measured concentration 38 μg/L): 30.1 ± 0.6 mm | Weight Female ([1]; measured concentration 38 μg/L): 338 ± 36 mg | Weight Male ([1]; measured concentration 38 μg/L): 294 ± 21 mg | GSI Female [1, 8]: 6.8 ± 3.5% | GSI Male [1, 8]: 0.6 ± 0.2% | HSI Female [1, 8]: 2.0 ± 0.70% | HSI Male [1, 8]: 1.6 ± 0.60% | Length Female [1, 8]: 28.5 ± 1.1 mm | Length Male [1, 8]: 28.5 ± 0.6 mm | Weight Female [1, 8]: 217 ± 19 mg | Weight Male [1, 8]: 200 ± 14 mg | GSI Female [1, 9]: 3.3 ± 0.7% | GSI Male [1, 9]: 0.4 ± 0.1% | HSI Female [1, 9]: 1.9 ± 0.30% | HSI Male [1, 9]: 1.2 ± 0.40% | Length Female [1, 9]: 28.7 ± 0.0 mm | Length Male [1, 9]: 29.6 ± 0.2 mm | Weight Female [1, 9]: 203 ± 47 mg | Weight Male [1, 9]: 190 ± 13 mg | GSI Female [1, 10]: 6.9 ± 2.4% | GSI Male [1, 10]: 0.5 ± 0.1% | HSI Female [1, 10]: 1.6 ± 0.50% | HSI Male [1, 10]: 1.5 ± 0.60% | Length Female [1, 10]: 27.5 ± 0.8 mm | Length Male [1, 10]: 28.3 ± 1.2 mm | Weight Female [1, 10]: 203 ± 26 mg | Weight Male [1, 10]: 183 ± 20 mg | Agonistic activity PC10 (medaka Esr1 (mEsr1) [2]): PC10 = 1.0 × 10^−5 M | In vitro positive: Esr (medaka Esr1 (mEsr1) [2]; mode of action in which EC50 or PC10 was obtained in RGA): Esr | Agonistic activity (medaka ARβ (mArβ) [3]): NE (MAC = 1.0 × 10^−5 M) | Antagonistic activity (medaka ARβ (mArβ) [4]): NE (MAC = 1.0 × 10^−5 M)^(C) | Antagonistic activity (medaka Esr1 (mEsr1) [5]): NE (MAC = 1.0 × 10^−5 M)^(A)
